Assay results from patent publication US11357752B2, “Carolacton and derivatives thereof for use in the treatment of cell proliferation disorders” (Helmholtz-Zentrum für Infektionsforschung GmbH, priority 2017, dated 2022).

Biological target: T1, hsMTHFD1 DC301 (Homo sapiens, UniProt P11586)
T1 construct: We therefore expressed and purified hsMTHFD2 and hsMTHFD1_DC to test them biochemically; His-tag (vector pHis-TEV); made in house; host or cells: E. coli BL21 (DE3)
T1 sequence (P11586 2-291 limits assumed): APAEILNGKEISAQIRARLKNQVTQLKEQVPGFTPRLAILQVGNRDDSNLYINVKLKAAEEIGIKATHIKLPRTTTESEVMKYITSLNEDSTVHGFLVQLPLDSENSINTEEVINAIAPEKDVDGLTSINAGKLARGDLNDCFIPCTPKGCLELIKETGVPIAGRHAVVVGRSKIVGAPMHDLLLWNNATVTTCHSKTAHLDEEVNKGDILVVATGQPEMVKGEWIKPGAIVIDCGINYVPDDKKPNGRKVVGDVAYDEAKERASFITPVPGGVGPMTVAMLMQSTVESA
Test: FoID cyclohydrolase (CYH) enzyme assay
Type: biochemical
Protocol: (6R,S)-5,10-Methylene-5,6,7,8-tetrahydrofolic acid ((6R,S)-5,10-CH2-THF), calcium salt and (6R,S)-5,10-Methenyl-5,6,7,8-tetrahydrofolic acid ((6R,S)-5,10-CH=THF) chloride were purchased from Schircks Laboratories (Bauma, Switzerland) and were used as substrates for FoID dehydrogenase and cyclohydrolase enzyme assays, respectively. Only the R-isomer, which accounts for 50% of (6R,S)-5,10-CH2-THF and (6R,S)-5,10-CH=THF, respectively, is used by the enzyme. (6R,S)-5,10-CH2-THF was dissolved in N2-spargeled basic buffer (50 mM Tris-HCl (pH 8.0), 100 mM β-mercaptoethanol) as described by Sah and Varshney, 2015a (6R,S)-5,10-CH=THF was first dissolved in DMSO as a 100 mM stock solution.
Because FoID is a bifunctional enzyme, dehydrogenase and cyclohydrolase activities were determined for FoID enzyme kinetics, respectively. The dehydrogenase activity of FoID was assayed for its substrate 5,10-CH2-THF and cofactor NADP+ (in the case of MTHFD2, NAD+ was used as cofactor) based on monitoring the formation of 5,10-CH=THF while the cyclohydrolase activity of FoID was determined for its substrate 5,10-CH=THF by monitoring the hydrolysis of 5,10-CH2-THF. The enzyme kinetics for the dehydrogenase activity of all FoIDs except hsMTHFD1_DC were determined at 30° C. in 50 mM Tris-HCl (pH 7.5), 30 mM β-mercaptoethanol. The hsMTHFD1_DC dehydrogenase activity was measured in 25 mM MOPS (pH 7.3), 30 mM β-mercaptoethanol at 30° C. To measure the enzyme kinetics constants for 5,10-CH2-THF, for example in the case of ecFoID, the NADP concentration was fixed at 1 mM and the concentration of 5,10-CH2-THF varied from 5 μM to 1,500 μM (R-isomer). Similarly, to measure the kinetic constants of ecFoID for NADP+, the concentration of 5,10-CH2-THF (R-isomer) was fixed at 1 mM and the concentration of NADP+ varied from 10 μM to 1,500 μM. For different FoIDs, the varied concentration range of substrates could be different. […] To monitor the formation of 5,10-CH=THF, the absorbance of the reaction mixture was monitored at 350 nm in micro UV cuvettes (BRAND, Essex, Connecticut, USA). The concentration of 5,10-CH=THF produced in the reaction was determined using an extinction co-efficient of 0.0249 μM-1 cm-1. […] The consumption of 5,10-CH=THF was measured by recording the absorbance of the reactions at 355 nm using the TECAN Infinite 200 PRO equipped with a monochromator. […] The inhibition constants (Ki) of carolacton on FoID were determined by measuring the apparent Km values when adding certain amounts of carolacton to the enzyme reactions. […] To compare the inhibition effects of carolacton between the different FoIDs, the half maximal inhibitory concentration (IC50) of carolacton on the same amount of enzyme was determined for FoIDs involved in this study. […]

CO[C@H](CC(=O)O)[C@@H](C)C(=O)[C@H](C)/C=C(\C)[C@H]1OC(=O)[C@H](O)[C@H](O)/C=C/[C@H](C)CCC[C@@H]1C [Carolacton, carolacton]
IC50 (5 nM enzyme, read-out: IC50, carolacton inhibition on CYH activity): 19.4 nM
Ki (vs 5,10-CH=THF, read-out: Ki (5,10-CH═THF), carolacton inhibition on CYH activity): 20.6 nM
